Results taken from patent US20220089540A1 (Board of Trustees of Michigan State University, priority 2019, published 2022).
pKd: −log10 of the molar value.

Key:
[1] = tested on: CD206; assay: CD206 expression in RAW 264.7 cells stimulated with E18-14C-27 conditioned media (immunoblot); format: cell-based, mouse; details: increasing concentrations, 24 hours
Method: RAW 264.7 mouse macrophage-like (ATCC) and E18-14C-27 (Wu et al., Cancer Res. 62, 6376-6380 (2002)) cells were cultured in DMEM supplemented with 10% fetal bovine serum (FBS). RAW 264.7 cells were cultured at 50000/well in a 6 well plate for 24 hours to determine PD-L1 levels. E18-14C-27 cells were cultured for 72 hours in the presence of LG268 for protein levels. Conditioned media was collected from E18-14C-27 at 60-70% confluence for 24 hours; media was then collected and centrifuged at 900 rpm for 5 minutes to eliminate any cell debris.
To explore whether the expression of CD206 in macrophages is dependent on stimulatory factors from tumor cells (e.g., tumor educated macrophages), conditioned media was collected from an established cell line (E18-14C-27 cells) derived from a mammary tumor of an MMTV-Neu mouse. When RAW 264.7 (macrophage-like) cells were stimulated with conditioned media from the E18-14C-27 cancer cells and treated with increasing concentrations of LG268 for 24 hours, a decrease in the expression of CD206 was observed by immunoblotting (FIG. 2E).

[2] = tested on: CD3 T cells; assay: CD8 subpopulations in isolated spleen CD3 T cells (flow cytometry); format: cell-based, mouse; details: anti-CD3ε, 3 days
Method: Cells were cultured for a total of 3 days.
Yellow zombie (Biolegend) staining was used to exclude dead cells.

[3] = tested on: inducible nitric oxide synthase (iNOS); assay: iNOS suppression / NO assay in LPS-stimulated macrophages or RAW264.7 cells (Griess reaction); format: cell-based, mouse; details: at 100 nM; comparators of Table 3
Summary of the method: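 RAW264.7 cells or macrophages incubated with rexinoids (300 nM, or 100 nM/300 nM, or a concentration series) and stimulated with 1–2 ng/ml LPS for 24 h. Nitric oxide released into medium measured by Griess reaction; values given as percent of LPS-stimulated control, % inhibition, or IC50.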

[4] = Toxicity in A/J mice with lung tumors fed rexinoids plus carboplatin and paclitaxel; format: in vivo; details: 100 mg/kg diet, 7 weeks
Method: A/J mice with lung tumors (detected by ultrasound) were fed rexinoids in their diets (at 100 mg/kg diet) and injected twice every other week with carboplatin and paclitaxel.

[5] = tested on: RAR receptor; details: cited from earlier work
[6] = target: RXR; details: read-out: Kd for RXR; cited from earlier work
[7] = tested on: FOXP3; assay: FOXP3 mRNA in isolated spleen CD4 T cells skewed towards Tregs; details: LG268 added for 4 days
[8] = tested on: mammary gland tumors of MMTV-Neu mice; assay: MMTV-Neu mouse model of HER2 positive breast cancer, rexinoid in diet
[9] = 100 mg/kg diet, LG268 5 days, bexarotene 10 days, western blot

In the case of `Cc1cc2c(cc1C1(c3ccc(C(=O)O)cn3)CC1)C(C)(C)CCC2(C)C` [LG268], the CD206 expression [1] was “decrease”, the “CD8 naive and central memory cells” value [2] was “increased percentage” and the iNOS [3] was 15-30% at 100 nM. The “toxicity findings (liver, triglycerides, cholesterol, fur)” value [4] was “hepatomegaly, with elevated triglycerides and cholesterol”, the “binding to the RAR receptor” value [5] was “does not bind” and the pKd [6] was […]. For the same compound, the “reduction of FOXP3 mRNA expression vs vehicle control” value [7] was 40%, the “PD-1 expression in tumors vs control” value ([8]; 100 mg/kg diet, 5 days) was “lower” and the “PD-L1 expression in tumors vs control” value ([8]; 100 mg/kg diet, LG268 5 days, CW-V-125 10 days, western blot and/or immunohistochemistry) was “significantly higher”. For the same compound, the “myeloid derived suppressor cells (CD45+, CD11b+, Gr1+) in tumors” value ([8]; 100 mg/kg diet, LG268 5 days, bexarotene 10 days, control 1.9%) was 0.8 % of CD45+ immune cells, the “mammary tumor size (tumor weight as percentage of total body weight)” value ([8]; 100 mg/kg diet, LG268 5 days, bexarotene 10 days, control diet 3.2%) was 1.1 % of total body weight and the “cleaved caspase 3 in tumors” value ([8]; 100 mg/kg diet, LG268 5 days, bexarotene 10 days, immunohistochemistry) was “increase”. For the same compound, the “reduction of CD206 expression in tumor lysates” value [8, 9] was 65%, the “reduction of p-STAT1 expression in whole tumor lysates” value [8, 9] was 80% and the “activated CD4 T cells (CD45+, CD3+, CD4+, CD25+) in tumors” value ([8]; 100 mg/kg diet, control 27.5%) was 13.0%. The “expression of p-STAT3 or p-STAT5 in tumor lysates” value ([8]; 100 mg/kg diet, western blot) was “no changes”, the “caliber of the vessels in the tumors” value ([8]; CD31 immunohistochemistry) was “reduced” and the “FOXP3 expression in tumors” value ([8]; immunohistochemistry) was “decreased”. For the same compound, the “time to complete regression of the tumors” value ([8]; mouse, in vivo) was “less than 10 days”.
